Data set [1] in a line: Stability on exposure to the air at room temperature for 12 months, purity by HPLC. The settings on record: after exposure to the air at room temperature for 12 months. It is filed as physicochemical. On the procedure:
The polymorphs of 4-aminopyridine or the polymorphs of the solvates thereof according to the present invention were exposed to the air at room temperature for 12 months, and then purities thereof were measured by using high performance liquid chromatography.
The above-mentioned eight polymorphs of 4-aminopyridine or of the solvates thereof according to the present invention were exposed to the air at room temperature for 12 months, and then purities thereof were measured by using high performance liquid chromatography. The obtained purity results thereof were shown as follows:
The purities were measured by using high performance liquid chromatography under the following conditions:
Chromatographic Column: Agilent extend-C18 (250*4.6 mm, 5 μ)
Mobile Phase: 0.01 mol/L of monopotassium phosphate solution containing 0.01 mol/L of sodium octanesulfonate (adjusted to pH 2.6 with phosphoric acid)-methanol (75:25);
Column Temperature: 40° C.;
Detection Wavelength: 264 nm;

Data set [2] relates to multiple sclerosis patients. Conditions: clinical trials (Phase III); cited from earlier work.
For data set [3], the system named is multiple sclerosis patients. Conditions: injected in 11 patients with eyesight and motor function impaired because of multiple sclerosis, 1983; cited from earlier work.

Molecules are shown by their SMILES.

Turning to `Nc1ccncc1` [Polymorph I, 4-aminopyridine], in data set [1], the “Purity (%)” value amounted to 99.66%.
As to `Nc1ccncc1` [Polymorph II, 4-aminopyridine], the “Purity (%)” value in data set [1] is on record as 100%.
Same read-out and setting: under `Nc1ccncc1` [Polymorph III, 4-aminopyridine] stands 100%; under `Nc1ccncc1` [Polymorph IV, 4-aminopyridine], 100%.
Take `Nc1ccncc1` [Polymorph V, 4-aminopyridine]: the “Purity (%)” value in data set [1] is reported as 100%.
On the same count and under the same terms, under `Nc1ccncc1` [Polymorph VI, 4-aminopyridine] stands 99.98%.
`Nc1ccncc1` [Polymorph VII, 4-aminopyridine]: the “Purity (%)” value in data set [1] came out at 100%.
In the case of `Nc1ccncc1` [Polymorph VIII, 4-aminopyridine], in data set [1], the “Purity (%)” value is 100%.
Turning to `Nc1ccncc1` [dalfampridine, 4-aminopyridine], the “walking speed versus placebo” value in data set [2] was “faster than that in patients who took a placebo”. In data set [3], the eyesight result was “improved” and the walking speed entry was “improved”.
